The results in this text go back to ChEMBL document CHEMBL1157118, “Cooperative binding of a quinoline derivative to an RNA stem loop containing a dangling end” (Bioorg Med Chem Lett, 2010).

Active and inactive are the calls of the source. No cut-off for these calls is given here.

The term Kd denotes the equilibrium constant for the complex coming apart.

Format in all cases: nucleic-acid assay
For assay [1], the target named is Nucleic Acid. Briefly: Binding affinity to 3'-dangling end of RNA1 by fluorescence spectroscopy analysis in presence of Triton X-100.
Assay [2] concerns the target Nucleic Acid. The experiment in a line: Binding affinity to 3'-dangling end of RNA1 by fluorescence spectroscopy analysis in absence of Triton X-100.
Assay [3] concerns the target Nucleic Acid. The experiment in a line: Binding affinity to 3'-dangling end of RNA1 ligand binding site 1 by isothermal titration calorimetry.
The test system of assay [4] is Nucleic Acid. The experiment in a line: Binding affinity to 3'-dangling end of RNA1 at 7.5 to 50 uM by CD spectroscopy.
Assay [5] deals with Nucleic Acid. Briefly: Binding affinity to 3'-dangling end of RNA1 by UV reverse titration method.
Assay [6] deals with Nucleic Acid. The experiment in a line: Binding affinity to 3'-dangling end of RNA1 ligand binding site 2 by isothermal titration calorimetry. For orientation: In ITC the heat of successive injections is recorded.
Assay [7] concerns the target Nucleic Acid. Briefly: Binding affinity to 3'-dangling end of RNA1 ligand binding site 3 by isothermal titration calorimetry.
Assay [8] has as its target Nucleic Acid. Briefly: Binding affinity to 3'-dangling end of RNA1 ligand binding site 4 by isothermal titration calorimetry.

Take `OC(CNc1ccnc2cc(Cl)ccc12)CNc1ccnc2cc(Cl)ccc12`: the Kd came out at 12 µM on Nucleic Acid [1]; 8.2 µM at Nucleic Acid [2]; 10.8 µM at Nucleic Acid [3]; 9.2 µM on Nucleic Acid [6]; 8.1 µM at Nucleic Acid [7]; 12.5 µM on Nucleic Acid [8]. For the same compound, the result with Nucleic Acid [4] and in the assay on Nucleic Acid [5] was Active.
